# According to patent US20220017833A1, “Methods and Compositions for Scavenging Sulfides from Hydrocarbon Fluids and Aqueous Streams” (Nexgen Oilfield Chemicals, LLC, priority 2019, published 2022):
# Assays:
# [1] = Solution Homogeneity Test; assay type: physicochemical; settings: Table 5; glyoxy alkyl diaminol in water and MeOH only
# Excerpt: In one aspect, as two-phase reaction products are problematic, scavenger system homogeneity is desired. The two phases could be emulsified or otherwise finely dispersed, but in practice, even fine, seemingly stable dispersions eventually separate or stratify in extended storage or critical use and are not robust enough for practical use. They are not allowed, for example, to be fed through capillaries for fear of plugging them. In this pass/fail test, a sample is held up for visual inspection in a backlit clear vial. A clear, single-phase, homogeneous solution is a pass. Anything else is a fail.
# Hot Spray Fouling Test = assay type: physicochemical; settings: Table 5; glyoxy alkyl diaminol in water and MeOH only
# Excerpt: In many gas applications, the scavenger must by sprayed into a hot gas stream. This can create insoluble materials (“solids”) as the scavenger system evaporates and/or decomposes. These solids accumulate and foul (interfere with the function) of the vessel, line, or equipment to which the scavenger is being fed. This precludes the scavenger being used in that application. Referring now to FIG. 2, a spray test system 200 is utilized to for the Hot Spray Fouling Test. In one embodiment, an injection atomizer apparatus 22 is employed, wherein the scavenger formulation (not separately labeled) is sprayed onto a sheet 26 through an atomizing nozzle 24, like that used to introduce the scavenger into a gas line, tank, or vessel. The material is first placed in a double boiler (not shown) and brought to 180° F. The heated liquid is then placed in the injection atomizer apparatus 22 and sprayed horizontally onto an aluminum sheet 26 twelve inches away. The chemical drains gravitationally down the sheet where it is funneled into a beaker 28 for collection. If solids are observed on the sheet 26 or in the draining or collected fluid, the sample fails. If no solids are observed, it passes the test.
# [2] = Spent Water Flowability Test; assay type: physicochemical; design: key: Pass: A homogeneous, single-phase solution or thin layer of readily flowable non-sticking liquid constitutes a pass.; Fail: Any solids or thick, sticky insoluble liquid is a fail.; PASS: A homogeneous, single-phase solution or thin layer of readily flowable non-sticking liquid constitutes a pass.; FAIL: Any solids or thick, sticky insoluble liquid is a fail; settings: Table 5; glyoxy alkyl diaminol in water and MeOH only
# Description: In field applications, spent scavenger is disposed of through a wastewater system. Spent scavenger might be soluble in the scavenger system but insoluble in wastewater. If it cannot be disposed of, it is not suitable for use. To ensure wastewater processing runs trouble free, spent scavenger passing the Spent Solids Fouling Test is then added to 39 times its weight in water (2.5%) and examined again for insoluble solids and viscous, sticky liquids that might foul the wastewater system. Any solids or thick, sticky insoluble liquid is a fail. A homogeneous, single-phase solution or thin layer of readily flowable non-sticking liquid constitutes a pass.
# [3] = Short Reaction Time Capacity Test; settings: 20 g test; for Min to BT / Min to FD: 3.00 g BuOH, GIDA 6.68 g as GID, 3.32 g water
# Excerpt: Referring now to FIG. 1, therein is schematically depicted a sulfide scavenger testing system 100 comprising a gas source 2, a flow regulator 4, gas treatment vessel 6, and a sulfide measurement device 8. In one testing embodiment, gas (not shown) is flowed from gas source 2 via gas feed piping 10 into flow regulator 4, which regulates gas flow to gas treatment vessel 6 via regulated gas feed piping 12. The regulated gas flows into gas treatment vessel 6 via a bottom inlet 14 thereof, where it comes into contact with a volume of liquid 16 comprising a sulfide scavenger system (not separately labeled). The gas, having been treated by the liquid, flows out of a top end 18 of gas treatment vessel 6 and flows into sulfide measurement device 8 via treated gas outlet piping 20.
# In one embodiment, gas flow from the flow regulator 4 is controlled such that the gas is flowed into the gas treatment vessel 6 at a flow rate of 100 mL/min. up to 500 mL/min. In one embodiment, a gas sparging device, such as a fine pore frit (not shown), is utilized to better distribute the gas into the scavenger liquid. In one embodiment, the gas treatment vessel 6 contains about 20 g of a liquid H2S scavenger, such as one or more diaminols/diaminacetals in a chemical system as described above. In one aspect, to the extent possible, H2S and/or CO2 are scavenged from the gas by the scavenger and the treated (“sweet”) gas exits top end 18 of treatment vessel 6. In one embodiment, sulfide measurement device 8 monitors the concentration of H2S leaving treatment vessel 6. in the gas phase. In other embodiments (not shown), a CO2 measurement device may be similarly employed to monitor the concentration of CO2 leaving treatment vessel 6 in the gas phase.
# In one embodiment, gas is flowed through sulfide scavenger testing system 100 until the outlet H2S concentration reaches a 4,000 ppm target, at which point the test is concluded. This relative time duration before the target is reached is used to compare H2S scavenger capacity given the kinetics of each sulfide scavenger system. The longer the duration, the better the capacity.
# The fine bubbles produced rise slowly, providing plenty of time, plenty of surface area, and a short path through which the H2S must diffuse to the scavenger in the liquid 16. Detector 8 on the outlet line 20 is used to measure H2S concentration in the exiting gas. The times to first detection (FD), at a threshold of 15 ppm, and to complete breakthrough (BT), at the detector saturation of 4000 ppm (0.4%), are recorded. This test is designed to measure the effective scavenging capacity in applications with long contact times.
# This test is the same as the Long Reaction Time Capacity Test, but without the gas sparging device, so as to produce larger bubbles, and at a higher feed rate of 200 mL/min, after the first 8 minutes at 100 mL/min. The larger bubbles rise quickly through the liquid 16, providing little time, little surface area, and a long path through which the H2S must diffuse to the scavenger in the liquid. This test is designed to measure the effective scavenging capacity in applications with short contact times. It is far more reaction rate dependent than the Long Reaction Time Capacity and so is a more critical and differentiating test.
# With triazine, one H2S reacts twice with the same molecule of triazine, replacing one amine, so the rate is “first order”, meaning proportional to the concentration of triazine.
# [4] = Eq/test GIDAc 0.114, GIDA 0.076 (8.00 g MeOH, 2.00 g BuOH)
# [5] = Eq/test Triazine 0.068, GIDAc 0.157, GIDA 0.076 (7.50 g MeOH, 2.50 g BuOH)
# [6] = GIDAc 8.00 g as GID, 9.00 g MeOH, 8.00 g MeOH, 2.00 g BuOH
# [7] = Triazine 7.50 g + 12.50 g water, GIDAc 11.00 g as GID, 6.00 g MeOH, 7.50 g MeOH, 2.50 g BuOH
compound,measurement,setting,value
"CC(C)NC(O)C(O)NC(C)C (centres unmarked) [GIDA, 1,2-bis[(propan-2-yl)amino]ethane-1,2-diol]",Solution Homogeneity,[1],Pass
same,Hot Spray Fouling,Hot Spray Fouling Test,Fail
same,Spent Water Flowability,[2],Fail
same,Min/Eq BT,[3]; [4],607 Min/Eq
same,Min/Eq FD,[3]; [4],515 Min/Eq
same,Min/Eq BT,[3]; [5],541 Min/Eq
same,Min/Eq FD,[3]; [5],462 Min/Eq
same,Min to BT,[3]; [6],46 min
same,Min to FD,[3]; [6],39 min
same,Min to BT,[3]; [7],41 min
same,Min to FD,[3]; [7],35 min
